Values of other authors in patent US20100190757A1, “COMBINATION PREPARATION FOR ORAL CONTREACEPTION AND ORAL THERAPY OF DYSFUNCTIONAL UTERINE BLEEDING CONTAINING ESTRADIOL VALERATE AND DIENOGEST AND METHOD OF USING SAME” (priority 2005, published 2010).

Test system: dysfunctional uterine bleeding
Conditions: for duration of the bleeding period: 6 anovulatory women (14 days, 12th to 25th day of cycle) and ten ovulatory women (20 days, 5th to 25th day), three times daily, both groups; for reliable contraception: same regimen, anovulatory and ovulatory women

| Structure (SMILES) | duration of the bleeding period | reliable contraception |
| --- | --- | --- |
| CC(=O)O[C@]1(C(C)=O)CC[C@H]2[C@@H]3C[C@H](C)C4=CC(=O)CC[C@]4(C)[C@H]3CC[C@@]21C [medroxyprogesterone acetate] | reduced | not attained |
| C#C[C@]1(O)CC[C@H]2[C@@H]3CCC4=CC(=O)CC[C@@H]4[C@H]3CC[C@@]21C [norethisterone] | reduced | not attained |
